# Test results: ChEMBL document CHEMBL5120947, “General Pharmacological Activation Mechanism of K+ Channels Bypassing Channel Gates” (J Med Chem, 2022)
# Active and inactive are the calls of the source. The calls are words filed in the database; no cut-off is given here.
# Experiments:
# [1] = molecular target: Potassium voltage-gated channel subfamily KQT member 2 (Homo sapiens) (UniProt O43526); assay: Agonist activity at human KCNQ2 expressed in CHO cells assessed as increase in outward current at 10 uM at 50 mV by patch clamp electrophysiology method; format: cell-based; details: filed as agonist
# [2] = molecular target: T1, Potassium voltage-gated channel subfamily KQT member 4 (Homo sapiens, UniProt P56696); assay: Agonist activity at human KCNQ4 channel expressed in CHO cells assessed as increase in outward current by patch clamp electrophysiology method; format: cell-based
# T1 sequence (P56696 whole entry): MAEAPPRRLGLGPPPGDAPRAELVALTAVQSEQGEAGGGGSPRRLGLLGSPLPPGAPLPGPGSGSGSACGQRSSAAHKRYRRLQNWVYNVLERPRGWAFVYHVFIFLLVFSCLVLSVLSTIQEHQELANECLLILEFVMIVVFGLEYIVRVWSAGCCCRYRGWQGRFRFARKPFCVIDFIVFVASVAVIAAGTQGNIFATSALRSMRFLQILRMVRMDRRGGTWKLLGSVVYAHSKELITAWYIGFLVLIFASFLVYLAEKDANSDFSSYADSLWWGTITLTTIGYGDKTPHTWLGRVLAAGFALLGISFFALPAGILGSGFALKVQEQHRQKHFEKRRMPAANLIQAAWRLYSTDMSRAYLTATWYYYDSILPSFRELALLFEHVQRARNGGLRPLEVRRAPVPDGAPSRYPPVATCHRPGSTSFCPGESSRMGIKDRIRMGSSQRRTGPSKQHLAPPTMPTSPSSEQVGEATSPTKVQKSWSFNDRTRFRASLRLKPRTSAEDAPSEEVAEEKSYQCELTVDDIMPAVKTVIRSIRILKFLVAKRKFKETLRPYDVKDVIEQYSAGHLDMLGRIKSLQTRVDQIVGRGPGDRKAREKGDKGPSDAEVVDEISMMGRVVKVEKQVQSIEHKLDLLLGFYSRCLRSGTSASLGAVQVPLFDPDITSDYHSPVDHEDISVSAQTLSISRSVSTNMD
# [3] = molecular target: Potassium voltage-gated channel subfamily KQT member 5 (Homo sapiens, UniProt Q9NR82); assay: Agonist activity at human KCNQ5 channel expressed in CHO cells assessed as increase in outward current by patch clamp electrophysiology method; format: cell-based
# [4] = Lipophilicity, logD of the compound; format: physicochemical; details: octanol/water
# [5] = molecular target: T2, Potassium channel subfamily K member 2 (Homo sapiens) (UniProt O95069); assay: Activation of human TREK-1 expressed in CHO cells at 10 uM in presence of ML335 by patch clamp electrophysiology method; format: cell-based; details: filed as activator
# T2 sequence (whole entry): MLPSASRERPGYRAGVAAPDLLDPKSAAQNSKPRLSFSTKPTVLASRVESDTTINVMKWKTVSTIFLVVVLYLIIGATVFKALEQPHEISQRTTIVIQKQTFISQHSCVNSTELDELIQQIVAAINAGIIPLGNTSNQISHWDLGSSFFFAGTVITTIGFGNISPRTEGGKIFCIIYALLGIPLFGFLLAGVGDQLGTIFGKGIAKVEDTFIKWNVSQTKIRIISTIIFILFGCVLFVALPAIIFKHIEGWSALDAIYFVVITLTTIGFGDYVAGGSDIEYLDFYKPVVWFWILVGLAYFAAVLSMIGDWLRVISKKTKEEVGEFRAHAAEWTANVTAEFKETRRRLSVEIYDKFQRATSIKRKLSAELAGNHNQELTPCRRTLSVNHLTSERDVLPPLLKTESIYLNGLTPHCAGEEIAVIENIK
# Sequence of Potassium voltage-gated channel subfamily KQT member 5 (Q9NR82 whole entry): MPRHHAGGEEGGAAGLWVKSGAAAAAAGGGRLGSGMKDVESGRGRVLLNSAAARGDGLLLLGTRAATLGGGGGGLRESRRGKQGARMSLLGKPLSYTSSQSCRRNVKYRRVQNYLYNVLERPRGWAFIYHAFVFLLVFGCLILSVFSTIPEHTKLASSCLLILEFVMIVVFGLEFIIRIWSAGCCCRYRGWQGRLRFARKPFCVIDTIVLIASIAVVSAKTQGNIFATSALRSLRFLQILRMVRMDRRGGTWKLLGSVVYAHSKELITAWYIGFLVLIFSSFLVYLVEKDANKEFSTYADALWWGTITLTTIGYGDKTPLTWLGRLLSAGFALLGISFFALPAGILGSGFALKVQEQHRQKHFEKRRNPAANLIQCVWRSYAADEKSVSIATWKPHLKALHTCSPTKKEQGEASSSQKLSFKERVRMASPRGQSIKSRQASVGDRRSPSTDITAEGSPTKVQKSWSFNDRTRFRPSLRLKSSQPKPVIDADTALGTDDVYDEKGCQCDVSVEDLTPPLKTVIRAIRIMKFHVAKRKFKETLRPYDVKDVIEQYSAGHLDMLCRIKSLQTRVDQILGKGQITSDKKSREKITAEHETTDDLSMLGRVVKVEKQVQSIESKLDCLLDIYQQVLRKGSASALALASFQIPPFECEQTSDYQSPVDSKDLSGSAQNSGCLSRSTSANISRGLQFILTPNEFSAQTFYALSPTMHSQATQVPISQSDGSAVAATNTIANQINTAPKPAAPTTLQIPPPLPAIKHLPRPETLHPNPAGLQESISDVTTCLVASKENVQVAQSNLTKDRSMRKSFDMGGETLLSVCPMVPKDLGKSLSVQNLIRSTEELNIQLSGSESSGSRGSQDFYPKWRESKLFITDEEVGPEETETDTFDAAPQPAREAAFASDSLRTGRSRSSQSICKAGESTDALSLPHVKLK
# Sequence of Potassium voltage-gated channel subfamily KQT member 2 (Homo sapiens) (O43526 whole entry): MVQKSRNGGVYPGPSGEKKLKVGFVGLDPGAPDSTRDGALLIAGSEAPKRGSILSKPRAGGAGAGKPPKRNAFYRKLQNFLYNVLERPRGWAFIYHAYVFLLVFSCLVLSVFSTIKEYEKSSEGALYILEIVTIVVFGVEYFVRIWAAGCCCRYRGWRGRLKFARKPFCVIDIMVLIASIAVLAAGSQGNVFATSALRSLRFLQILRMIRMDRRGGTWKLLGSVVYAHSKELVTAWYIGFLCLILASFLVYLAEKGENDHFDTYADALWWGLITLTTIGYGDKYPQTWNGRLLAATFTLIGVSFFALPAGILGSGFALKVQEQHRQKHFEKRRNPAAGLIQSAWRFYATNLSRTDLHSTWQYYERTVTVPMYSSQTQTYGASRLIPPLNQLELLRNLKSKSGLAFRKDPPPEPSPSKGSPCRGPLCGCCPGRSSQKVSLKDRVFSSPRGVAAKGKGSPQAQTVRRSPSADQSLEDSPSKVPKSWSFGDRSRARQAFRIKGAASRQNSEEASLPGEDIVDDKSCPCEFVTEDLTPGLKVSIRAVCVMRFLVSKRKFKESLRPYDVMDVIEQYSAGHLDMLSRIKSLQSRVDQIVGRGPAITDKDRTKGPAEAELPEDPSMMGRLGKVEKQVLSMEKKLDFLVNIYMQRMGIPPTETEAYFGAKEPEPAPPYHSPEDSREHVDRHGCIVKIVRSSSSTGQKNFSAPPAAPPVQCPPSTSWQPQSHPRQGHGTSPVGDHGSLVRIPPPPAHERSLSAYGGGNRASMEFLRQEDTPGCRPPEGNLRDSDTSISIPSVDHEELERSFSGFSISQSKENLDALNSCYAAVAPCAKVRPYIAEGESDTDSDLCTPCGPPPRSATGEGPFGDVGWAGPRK
logD [4],Activity [5],SMILES,also measured
,,O=C(Nc1ccc(Cl)nc1)c1ccc(F)cc1,Activity [1]: Active
4.79,,Cc1ccc(CSCc2nnc(SCC(=O)Nc3ccc(Br)cc3Br)n2C)cc1,EC50 [2]: 6.4 µM; EC50 [3]: 4.5 µM
4.38,,Cc1ccc(CSCc2nnc(SCC(=O)Nc3ccc(Br)cc3F)n2C)cc1,
,Active,O=C(O)c1ccccc1Nc1ccc(CCc2ccc(Cl)c(Cl)c2)cc1,
,Active,c1ccc(-c2nnn[nH]2)c(Nc2cccc3c2CCCC3)c1,
4.66,,Cc1ccc(CSCc2nnc(SCC(=O)Nc3ccc(Br)cc3I)n2C)cc1,
